Measured values reported in patent publication US20230057602A1, “METHODS OF TREATMENT WITH ANTIBODIES AGAINST BCMA AND CD3” (BRISTOL-MYERS SQUIBB COMPANY, priority 2019, published 2023).

Assays:
[1] = tested on: SKMM2 BCMA-expressing myeloma cell line; test: CC-93269-induced redirected lysis of SKMM2; assay type: cell-based, human; settings: E:T 1:1, 72 hours, 3 donors
Procedure: (§1) Four BCMA-expressing tumour cell lines purchased from ATCC (Manassa, Va.) (Multiple Myeloma cell lines: BCMA high-H-929 (catalog number CRL-9068), BCMA mid-SKMM2 and -MM.1S (catalog number ACC-430) and BCMA low-KMS12-PE (catalog number ACC-606)) were co-cultured with T-cells from 3 independent healthy donors (Bloodworks Northwest, Seattle, Wash.), at a E:T ratio of 1:1, i.e. 1 T cell: 1 myeloma cell. […]; 0.033-2.6 nM) for 72 hours.
(§2) FIG. 7 illustrates CC-93269-induced redirected lysis of BCMA+ tumour cell lines following co-culture with donor T cells from one healthy donor; results from all 3 independent healthy donors are summarised in Table 19. In 96-well round bottom plates and a final volume of 100 μL, 1×10^4 CellTrace Violet-labeled T-cells were plated with 1×10^4 CellTrace CFSE-labeled target cells, in the presence of varying concentrations of CC-93269 in combination with varying concentrations of dexamethasone (7-point dose response). The cocultures were incubated at 37° C. with 5% CO2. […] One-hundred percent viability was determined by the absolute cell count of live tumour cells at no addition of CC-93269 or dexamethasone; an absolute cell count of 0 live cells was used to define 100% killing of tumour cells. […] The IC50 values were calculated using non-linear regression analysis, sigmoidal dose-response using GraphPad Prism (version 5.0) software.

[2] = tested on: KMS12-PE BCMA-expressing myeloma cell line; test: CC-93269-induced redirected lysis of KMS12-PE; assay type: cell-based, human; settings: E:T 1:1, 72 hours, 3 donors
Procedure: as §1, §2

[3] = Subcutaneous versus intravenous bioavailability (data not shown); assay type: in vivo
Procedure: In some embodiments of any aspect of the invention, the multispecific (e.g. bispecific) antibody is administered intravenously or subcutaneously.

[4] = tested on: H929 BCMA-expressing myeloma cell line; test: CC-93269-induced redirected lysis of H929; assay type: cell-based, human; settings: E:T 1:1, 72 hours, 3 donors
Procedure: as §1, §2

[5] = tested on: MM1S BCMA-expressing myeloma cell line; test: CC-93269-induced redirected lysis of MM1S; assay type: cell-based, human; settings: E:T 1:1, 72 hours, 3 donors
Procedure: as §1, §2

[6] = Clinical study of CC-93269 in RRMM: pharmacokinetics (exposure); assay type: in vivo, human
Procedure: CC-93269 (42-TCBcv), a bispecific antibody that specifically binds to BCMA bivalently and CD3 monovalently, was administered intravenously over 2 hours on Days 1, 8, 15, and 22 for Cycles 1-3; Days 1 and 15 for Cycles 4-6; and on Day 1 for Cycle 7 and beyond, all in 28-day cycles. 14 patients received a fixed dose of CC-93269 at each of the intervals: 0.15 mg (Cohort 1, n=1), 0.5 mg (Cohort 2, n=1), 1.5 mg (Cohort 3, n=1), 3 mg (Cohort 4, n=4), 6 mg (Cohort 5, n=3) or 10 mg (Cohort 6, n=4). 5 patients received a starting dose of 6 mg on Cycle 1 Day 1, followed by a dose of 10 mg on Cycle 1 Day 8 and thereafter (Cohort 7, n=5).
This phenomenon was not observed at 3 mg doses.

CC-93269: bispecific antibody that specifically binds to BCMA bivalently and CD3 monovalently; SEQ ID NO:48, 55, 56, 57 (2×)
% live tumour cells, Mean ([1]; 1 μM Dex co-treatment): 3.5% | % live tumour cells, Mean ([1]; DMSO): 2.68% | % live tumour cells, Mean ([2]; 1 μM Dex co-treatment): 5.8% | % live tumour cells, Mean ([2]; DMSO): 3.71% | bioavailability of subcutaneous administration [3]: comparable bioavailability to intravenous administration | % live tumour cells, Mean ([4]; 1 μM Dex co-treatment): 2.11% | % live tumour cells, Mean ([4]; DMSO): 1.61% | % live tumour cells, Mean ([5]; 1 μM Dex co-treatment): 0.98% | % live tumour cells, Mean ([5]; DMSO): 1.5% | large increases in exposure after multiple doses ([6]; 3 mg doses): not observed | exposure after multiple doses ([6]; doses ≥6 mg): large increases in exposure
